Measurements from US20090042839A1, “Crystalline forms of ibandronate sodium” (priority 2007, published 2009).

Experiments:
[1] = Stability of crystalline forms of ibandronate sodium when stored for 3 months at room temperature (polymorphic form by XRD); assay type: physicochemical; settings: for crystalline form after storage: storage at room temperature for 3 months; for Results (crystalline form after storage): stored at 25° C., polyethylene bags in closed Aluminium bags, monosodium salt
Experimental: The x-ray powder diffraction was performed on Scintag X-ray powder diffractometer model X'TRA with a solid state detector at room temperature. Copper radiation of 1.5418 Å was used. The sample holder was a round standard aluminum sample holder with rough zero background. The scanning parameters were range: 2-40 degrees two-theta; scan mode: continuous scan; step size: 0.05 degrees; and at a rate of 5 degrees/minute. […]

[2] = Storage of crystalline ibandronate sodium Form C at room temperature for 2 years, retested by XRD; assay type: physicochemical; settings: stored at room temperature for 2 years
Experimental: The x-ray powder diffraction was performed on Scintag X-ray powder diffractometer model X'TRA with a solid state detector at room temperature. Copper radiation of 1.5418 Å was used. The sample holder was a round standard aluminum sample holder with rough zero background. The scanning parameters were range: 2-40 degrees two-theta; scan mode: continuous scan; step size: 0.05 degrees; and at a rate of 5 degrees/minute.
Crystalline ibandronate sodium Form C was stored at room temperature for 2 years.

Compound | crystalline form after storage [1] | Results (crystalline form after storage) ([1]; 1 month) | Results (crystalline form after storage) ([1]; 3 months) | crystalline form found by XRD after storage [2]
CCCCCN(C)CCC(O)(P(=O)([O-])O)P(=O)(O)O.[Na+] [Form Alpha, (1-hydroxy-3-(N-methyl-N-pentylamino)propylidene) bisphosphonic acid monosodium salt] | maintained their crystalline form | Alpha | Alpha | 
CCCCCN(C)CCC(O)(P(=O)([O-])O)P(=O)(O)O.[Na+] [Form C2, (1-hydroxy-3-(N-methyl-N-pentylamino)propylidene) bisphosphonic acid monosodium salt] | maintained their crystalline form |  |  | 
CCCCCN(C)CCC(O)(P(=O)([O-])O)P(=O)(O)O.[Na+] [Form C, (1-hydroxy-3-(N-methyl-N-pentylamino)propylidene) bisphosphonic acid monosodium salt, reference compound] | maintained their crystalline form |  |  | crystalline ibandronate sodium Form V
CCCCCN(C)CCC(O)(P(=O)([O-])O)P(=O)(O)O.[Na+] [Form n-butanolate, (1-hydroxy-3-(N-methyl-N-pentylamino)propylidene) bisphosphonic acid monosodium salt] | maintained their crystalline form | n-butanolate | n-butanolate | 
